Source: patent US7414042B2, “Method and composition for selectively inhibiting melanoma” (The Board of Trustees of The University of Illinois, priority 1995, dated 2008)
Converted amounts (≈) assume the structure as drawn.

What was measured:
P-388 murine lymphocyte = conditions: tests conducted by the National Cancer Institute; cited from earlier work
human lymphocytes = assay: Formation of the 50 Kbp DNA fragment in normal cells; format: cell-based; conditions: 2 and 20 μg/ml, time-course
MEL-2 cells = assay: Formation of the 50 Kbp DNA fragment (apoptosis), field-inversion gel electrophoresis; format: cell-based, human
Description: Therefore, an important feature of the present invention is a method of analyzing and quantifying the formation of the 50 Kbp fragment as a biomarker for induction of apoptosis in human cancer cell lines. This method comprises treatment of cells in culture, followed by analysis of the total cellular DNA content using agarose field-inversion gel electrophoresis. Under these conditions, the 50 Kbp fragment is resolved as a diffuse band. The fraction of the total cellular DNA represented by the 50 Kbp fragment is determined by densitometry on the contour of this band.
To investigate the ability of betulinic acid to induce apoptosis, the above-described method was adapted for use with the MEL-2 cell line. […]
With further respect to FIG. 3A, cultured MEL-2 cells (10^6 cells inoculated per 25 cm^2 flask) were treated with […] betulinic acid (200 μg/ml DMSO, diluted 1:100 in media) for 24, 32, 48, 56 and 72 hours. […] Samples were analyzed on a 1% agarose gel in a Hoefer HE100 SuperSub apparatus cooled to 10° C. by a circulating water bath. […]
Electrophoresis was performed at 172 volts for a total of 18 hours using two sequential field inversion programs with pulse ramping. The DNA/ethidium bromide fluorescence was excited on a UV transilluminator and photographed using Polaroid type 55 P/N film. The negative was analyzed using a PDI scanning densitometer and Quantity One software. […]

MEL-4 = assay: Dose-response study, additional human melanoma cell line; format: cell-based
Experimental: (§1) Moreover, the cytotoxic response mediated by betulinic acid is not exclusively limited to the MEL-2 melanoma cell line.
(§2) The plates were incubated for three days. […] Dose response studies were performed to generate ED50 values.

MEL-3 = assay: as above; format: cell-based
Experimental: as §1, §2

MEL-1 = assay: as above; format: cell-based
Experimental: as §1, §2

[1] = tested on: L1210 murine lymphocytic leukemia; conditions: 200 mg/kg; cited from earlier work

SMILES: C=C(C)[C@@H]1CC[C@]2(C(=O)O)CC[C@]3(C)[C@H](CC[C@@H]4[C@@]5(C)CC[C@H](O)C(C)(C)[C@@H]5CC[C@]43C)[C@@H]12 [Compound 10, 3β-hydroxy-lup-20(29)-ene-28-oic acid]
- antitumor activity, P-388 (P-388 murine lymphocyte): activity was not supported
- formation of the 50 Kbp fragment in human lymphocytes (human lymphocytes): did not demonstrate formation of the 50 Kbp fragment
- treatment period at maximum induction of the 50 Kbp fragment (MEL-2 cells; 2 μg/ml betulinic acid (FIG. 3A)): 56 h
- ED50 of the apoptotic response (50 Kbp fragment) (MEL-2 cells; MEL-2 cells treated for 56 hours (FIG. 3B)): about 1.5 μg/ml
- ED50 MEL-4 (MEL-4): 4.8 µg/mL (≈ 10.5 µM)
- ED50 MEL-3 (MEL-3): 3.3 µg/mL (≈ 7.23 µM)
- ED50 MEL-1 (MEL-1): 1.1 µg/mL (≈ 2.41 µM)
- antitumor activity, L1210 [1]: inactive
